Data as given in ChEMBL document CHEMBL1201862, “PubChem BioAssay data set” (2004).
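Values below derive from 48-hour exposures of cells grown in 96-well plates, with endpoints linearly interpolated between the two concentrations bracketing the appropriate inhibition level. GI50 marks 50% less growth.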 Active and inactive are the calls of the source. Cut-off read from the data, not from the text of the source: active = GI50 up to about 1.1 µM and inactive = higher.

Tests used:
Assay in all cases: NCI-60 cell line screen, 48 h
KM12 = tested on: KM12
M14 = tested on: M14
NCI-H460 = tested on: NCI-H460
SNB-75 = tested on: SNB-75
HOP-62 = tested on: HOP-62
NCI-H522 = tested on: NCI-H522
SK-MEL-2 = tested on: SK-MEL-2
OVCAR-5 = tested on: OVCAR-5
SW-620 = tested on: SW-620
786-0 = tested on: 786-0
SK-MEL-5 = tested on: SK-MEL-5
MOLT-4 = tested on: MOLT-4
OVCAR-4 = tested on: OVCAR-4
NCI/ADR-RES = tested on: NCI/ADR-RES
A498 = tested on: A498
ACHN = tested on: ACHN
MDA-MB-231 = tested on: MDA-MB-231
IGROV-1 = tested on: IGROV-1
HL-60 = tested on: HL-60
RPMI-8226 = tested on: RPMI-8226
OVCAR-3 = tested on: OVCAR-3
SK-MEL-28 = tested on: SK-MEL-28
CAKI-1 = tested on: CAKI-1
A549 = tested on: A549
Hs-578T = tested on: Hs-578T
SF-268 = tested on: SF-268
CCRF-CEM = tested on: CCRF-CEM
SR = tested on: SR
HCT-116 = tested on: HCT-116
UACC-257 = tested on: UACC-257
SK-OV-3 = tested on: SK-OV-3
MDA-MB-435 = tested on: MDA-MB-435
BT-549 = tested on: BT-549
OVCAR-8 = tested on: OVCAR-8
UACC-62 = tested on: UACC-62
T47D = tested on: T47D
K562 = tested on: K562
COLO 205 = tested on: COLO 205
SF-539 = tested on: SF-539
PC-3 = tested on: PC-3
EKVX = tested on: EKVX
SNB-19 = tested on: SNB-19
U-251 = tested on: U-251
SF-295 = tested on: SF-295
RXF 393 = tested on: RXF 393
DU-145 = tested on: DU-145
MCF7 = tested on: MCF7
NCI-H226 = tested on: NCI-H226
UO-31 = tested on: UO-31
SN12C = tested on: SN12C
HT-29 = tested on: HT-29
Malme-3M = tested on: Malme-3M
HCT-15 = tested on: HCT-15
MDA-N = tested on: MDA-N
NCI-H23 = tested on: NCI-H23
HOP-92 = tested on: HOP-92
TK-10 = tested on: TK-10
LOX IMVI = tested on: LOX IMVI
HCC 2998 = tested on: HCC 2998

For CC(C)c1nc2c(Cl)c3ncccc3cc2[nH]c1=O, the GI50 (KM12) was 80.4 µM (inactive), the GI50 (M14) was > 100 µM (inactive) and the GI50 (NCI-H460) was 88.1 µM (inactive). The GI50 (SNB-75) was 26.4 µM (inactive), the GI50 (HOP-62) was 32.7 µM (inactive) and the GI50 (NCI-H522) was 16.7 µM (inactive). For the same compound, the GI50 (SK-MEL-2) was > 100 µM (inactive), the GI50 (OVCAR-5) was > 100 µM (inactive) and the GI50 (SW-620) was > 100 µM (inactive). The GI50 (786-0) was > 100 µM (inactive), the GI50 (SK-MEL-5) was 73.6 µM (inactive) and the GI50 (MOLT-4) was 29.6 µM (inactive). The GI50 (OVCAR-4) was 67.8 µM (inactive), the GI50 (NCI/ADR-RES) was 37.8 µM (inactive) and the GI50 (A498) was > 100 µM (inactive). For the same compound, the GI50 (ACHN) was 44 µM (inactive), the GI50 (MDA-MB-231) was 73.6 µM (inactive) and the GI50 (IGROV-1) was 14.8 µM (inactive). For the same compound, the GI50 (HL-60) was 50.4 µM (inactive), the GI50 (RPMI-8226) was > 100 µM (inactive) and the GI50 (OVCAR-3) was > 100 µM (inactive). The GI50 (SK-MEL-28) was > 100 µM (inactive), the GI50 (CAKI-1) was 94.6 µM (inactive) and the GI50 (A549) was > 100 µM (inactive). The GI50 (Hs-578T) was 25.8 µM (inactive), the GI50 (SF-268) was 34.1 µM (inactive) and the GI50 (CCRF-CEM) was 46.2 µM (inactive). The GI50 (SR) was > 100 µM (inactive), the GI50 (HCT-116) was > 100 µM (inactive) and the GI50 (UACC-257) was > 100 µM (inactive). For the same compound, the GI50 (SK-OV-3) was > 100 µM (inactive), the GI50 (MDA-MB-435) was > 100 µM (inactive) and the GI50 (BT-549) was 54.5 µM (inactive). For the same compound, the GI50 (OVCAR-8) was 29.2 µM (inactive), the GI50 (UACC-62) was > 100 µM (inactive) and the GI50 (T47D) was 70.5 µM (inactive). For the same compound, the GI50 (K562) was > 100 µM (inactive), the GI50 (COLO 205) was > 100 µM (inactive) and the GI50 (SF-539) was > 100 µM (inactive). For the same compound, the GI50 (PC-3) was > 100 µM (inactive), the GI50 (EKVX) was 9.71 µM (inactive) and the GI50 (SNB-19) was > 100 µM (inactive). For the same compound, the GI50 (U-251) was 73.3 µM (inactive), the GI50 (SF-295) was > 100 µM (inactive) and the GI50 (RXF 393) was > 100 µM (inactive). The GI50 (DU-145) was > 100 µM (inactive), the GI50 (MCF7) was > 100 µM (inactive) and the GI50 (NCI-H226) was 65.9 µM (inactive). The GI50 (UO-31) was > 100 µM (inactive), the GI50 (SN12C) was > 100 µM (inactive) and the GI50 (HT-29) was > 100 µM (inactive). For the same compound, the GI50 (Malme-3M) was > 100 µM (inactive), the GI50 (HCT-15) was 74 µM and the GI50 (MDA-N) was > 100 µM (inactive). For the same compound, the GI50 (NCI-H23) was 80.2 µM (inactive) and the GI50 (HOP-92) was > 100 µM (inactive).
O=c1c(O)c(-c2cc(O)c(O)cc2O)oc2cc(O)c(C3OC(CO)C(O)C(O)C3O)c(O)c12 (stereo not given) was tested, and the GI50 (KM12) was > 100 µM (inactive), the GI50 (M14) was > 100 µM (inactive) and the GI50 (NCI-H460) was > 100 µM (inactive). For the same compound, the GI50 (SNB-75) was 45.1 µM (inactive), the GI50 (HOP-62) was > 100 µM (inactive) and the GI50 (NCI-H522) was > 100 µM (inactive). For the same compound, the GI50 (TK-10) was > 100 µM (inactive), the GI50 (SK-MEL-2) was > 100 µM (inactive) and the GI50 (OVCAR-5) was > 100 µM (inactive). The GI50 (SW-620) was > 100 µM (inactive), the GI50 (786-0) was > 100 µM (inactive) and the GI50 (MOLT-4) was > 100 µM (inactive). For the same compound, the GI50 (OVCAR-4) was > 100 µM (inactive), the GI50 (NCI/ADR-RES) was > 100 µM (inactive) and the GI50 (A498) was > 100 µM (inactive). The GI50 (ACHN) was > 100 µM (inactive), the GI50 (MDA-MB-231) was > 100 µM (inactive) and the GI50 (IGROV-1) was > 100 µM (inactive). For the same compound, the GI50 (HL-60) was > 100 µM (inactive), the GI50 (RPMI-8226) was > 100 µM (inactive) and the GI50 (OVCAR-3) was > 100 µM (inactive). For the same compound, the GI50 (SK-MEL-28) was > 100 µM (inactive), the GI50 (A549) was > 100 µM (inactive) and the GI50 (Hs-578T) was > 100 µM (inactive). The GI50 (SF-268) was > 100 µM (inactive), the GI50 (SR) was > 100 µM (inactive) and the GI50 (HCT-116) was > 100 µM (inactive). For the same compound, the GI50 (UACC-257) was > 100 µM (inactive), the GI50 (SK-OV-3) was > 100 µM (inactive) and the GI50 (MDA-MB-435) was > 100 µM (inactive). The GI50 (BT-549) was > 100 µM (inactive), the GI50 (OVCAR-8) was > 100 µM (inactive) and the GI50 (UACC-62) was > 100 µM (inactive). The GI50 (T47D) was > 100 µM (inactive), the GI50 (K562) was > 100 µM (inactive) and the GI50 (SF-539) was > 100 µM (inactive). The GI50 (PC-3) was > 100 µM (inactive), the GI50 (EKVX) was > 100 µM (inactive) and the GI50 (SNB-19) was > 100 µM (inactive). The GI50 (U-251) was > 100 µM (inactive), the GI50 (LOX IMVI) was > 100 µM (inactive) and the GI50 (SF-295) was > 100 µM (inactive). The GI50 (DU-145) was > 100 µM (inactive), the GI50 (MCF7) was > 100 µM (inactive) and the GI50 (NCI-H226) was > 100 µM (inactive). The GI50 (UO-31) was > 100 µM (inactive), the GI50 (SN12C) was > 100 µM (inactive) and the GI50 (HT-29) was > 100 µM (inactive). For the same compound, the GI50 (HCT-15) was over 100 µM, the GI50 (MDA-N) was > 100 µM (inactive) and the GI50 (HOP-92) was > 100 µM (inactive).
In the case of O=C1C[C@@H](Sc2ccccc2)C2(OCCO2)[C@H]2ON3CCC[C@@H]3[C@@H]12, the GI50 (KM12) is reported as 4.4 µM (inactive), the GI50 (M14) is reported as 2.12 µM (inactive) and the GI50 (NCI-H460) is reported as 4.36 µM (inactive). The GI50 (HCC 2998) was 8 µM (inactive), the GI50 (HOP-62) was 3.16 µM (inactive) and the GI50 (TK-10) was 6.71 µM (inactive). For the same compound, the GI50 (SK-MEL-2) was 3.72 µM (inactive), the GI50 (SW-620) was 2.14 µM (inactive) and the GI50 (786-0) was 2.07 µM (inactive). For the same compound, the GI50 (MOLT-4) was 1.04 µM (active), the GI50 (OVCAR-4) was 5 µM (inactive) and the GI50 (NCI/ADR-RES) was 3.31 µM (inactive). The GI50 (A498) was 10.9 µM (inactive), the GI50 (ACHN) was 3.4 µM (inactive) and the GI50 (MDA-MB-231) was 3.06 µM (inactive). For the same compound, the GI50 (IGROV-1) was 2.24 µM (inactive), the GI50 (HL-60) was 1.38 µM (inactive) and the GI50 (RPMI-8226) was 2.85 µM (inactive). The GI50 (OVCAR-3) was 1.68 µM (inactive), the GI50 (SK-MEL-28) was 7.83 µM (inactive) and the GI50 (CAKI-1) was 4.42 µM (inactive). The GI50 (A549) was 10.3 µM (inactive), the GI50 (Hs-578T) was 2.77 µM (inactive) and the GI50 (SF-268) was 2.95 µM (inactive). For the same compound, the GI50 (CCRF-CEM) was 0.782 µM (active), the GI50 (SR) was 1.3 µM (inactive) and the GI50 (HCT-116) was 1.55 µM (inactive). For the same compound, the GI50 (UACC-257) was 13.4 µM (inactive), the GI50 (SK-OV-3) was 13.2 µM (inactive) and the GI50 (MDA-MB-435) was 2.58 µM (inactive). The GI50 (BT-549) was 6.53 µM (inactive), the GI50 (OVCAR-8) was 2.03 µM (inactive) and the GI50 (UACC-62) was 10.9 µM (inactive). For the same compound, the GI50 (T47D) was 2.83 µM (inactive), the GI50 (K562) was 2.56 µM (inactive) and the GI50 (COLO 205) was 2.48 µM (inactive). For the same compound, the GI50 (SF-539) was 2.87 µM (inactive), the GI50 (PC-3) was 4.55 µM (inactive) and the GI50 (SNB-19) was 14.8 µM (inactive). For the same compound, the GI50 (U-251) was 3.33 µM (inactive), the GI50 (LOX IMVI) was 3.1 µM (inactive) and the GI50 (SF-295) was 11.4 µM (inactive). The GI50 (DU-145) was 2.55 µM (inactive), the GI50 (MCF7) was 3.33 µM (inactive) and the GI50 (NCI-H226) was 7.67 µM (inactive). The GI50 (UO-31) was 1.94 µM (inactive), the GI50 (SN12C) was 2.33 µM (inactive) and the GI50 (HT-29) was 1.17 µM (inactive). For the same compound, the GI50 (Malme-3M) was 1.82 µM (inactive), the GI50 (HCT-15) was 2.44 µM and the GI50 (MDA-N) was 2.7 µM (inactive). For the same compound, the GI50 (NCI-H23) was 4.61 µM (inactive) and the GI50 (HOP-92) was 3.89 µM (inactive).
